Data taken from ChEMBL document CHEMBL2390824, “Carbonic anhydrase inhibitors. Benzenesulfonamides incorporating cyanoacrylamide moieties strongly inhibit Saccharomyces cerevisiae β-carbonic anhydrase” (Bioorg Med Chem Lett, 2013).

Experiments:
[1] = Inhibition of Sachcharomyces cerevisiae beta carbonic anhydrase after 15 mins by stopped-flow CO2 hydrase assay; parameters: species or system Saccharomyces cerevisiae
[2] = Selectivity ratio of Ki for Sachcharomyces cerevisiae beta carbonic anhydrase to Ki for human carbonic anhydrase-2
[3] = Selectivity ratio of Ki for Sachcharomyces cerevisiae beta carbonic anhydrase to Ki for human carbonic anhydrase-1
Saccharomyces cerevisiae = test: Antifungal activity against wild type Saccharomyces cerevisiae BY4742 assessed as growth inhibition after 48 hrs by microplate spectrophotometric analysis; assay type: functional; settings: BY4742, 48 h, read-out: CC50

`N=c1oc2ccccc2cc1C(=O)Nc1ccc(S(N)(=O)=O)cc1` gave a Ki [1] of 5.8 nM, a Ratio Ki [2] of 1.88 and a Ratio Ki [3] of 5.67.

Work on `N#C/C(=C\c1ccc([N+](=O)[O-])cc1)C(=O)Nc1ccc(S(N)(=O)=O)cc1` yielded a Ki [1] of 18.6 nM, a Ratio Ki [2] of 0.29 and a Ratio Ki [3] of 2.15.

Work on `N#C/C(C(=O)Nc1ccc(S(N)(=O)=O)cc1)=C(\S)Nc1ccccc1` yielded a Ki [1] of 45.8 nM, a Ratio Ki [2] of 0.14 and a Ratio Ki [3] of 1.47.

Compound `COc1cc(OC)c(OC)cc1/C=C(\C#N)C(=O)Nc1ccc(S(N)(=O)=O)cc1` has a Ki [1] of 8.6 nM, a Ratio Ki [2] of 4.44 and a Ratio Ki [3] of 4.93.

Work on `COc1cc(/C=C(\C#N)C(=O)Nc2ccc(S(N)(=O)=O)cc2)ccc1O` yielded a Ki [1] of 5.6 nM, a Ratio Ki [2] of 1.07 and a Ratio Ki [3] of 5.87.

For `N#C/C(=C\c1ccc(Cl)cc1Cl)C(=O)Nc1ccc(S(N)(=O)=O)cc1`, the Ki [1] was 9.1 nM, the Ratio Ki [2] was 3.61 and the Ratio Ki [3] was 5.17.

In the case of `COc1cc(/C=C(\C#N)C(=O)Nc2ccc(S(N)(=O)=O)cc2)cc(OC)c1OC`, the Ki [1] is reported as 7.1 nM, the Ratio Ki [2] is reported as 1.05 and the Ratio Ki [3] is reported as 5.17.

In the case of `N#C/C(=C\C=C\c1ccccc1)C(=O)Nc1ccc(S(N)(=O)=O)cc1`, the Ki [1] is reported as 5.9 nM, the Ratio Ki [2] is reported as 5.3 and the Ratio Ki [3] is reported as 3.16.

With `N#C/C(=C\c1ccc(O)cc1)C(=O)Nc1ccc(S(N)(=O)=O)cc1` the Growth inhibition IC50 (Saccharomyces cerevisiae) was 6540 nM, the Ki [1] was 2.5 nM and the Ratio Ki [2] was 13.5. The Ratio Ki [3] was 23.6.

Work on `N#CCC(=O)Nc1ccc(S(N)(=O)=O)cc1` yielded a Ki [1] of 8.7 nM, a Ratio Ki [2] of 0.7 and a Ratio Ki [3] of 6.25.

Compound `CC(=O)C1=NN(c2ccccc2)/C(=C(\C#N)C(=O)Nc2ccc(S(N)(=O)=O)cc2)S1` has a Ki [1] of 57.3 nM, a Ratio Ki [2] of 0.13 and a Ratio Ki [3] of 2.02.

With `N#C/C(=C\c1ccccc1Cl)C(=O)Nc1ccc(S(N)(=O)=O)cc1` the Ki [1] was 8.4 nM, the Ratio Ki [2] was 7.26 and the Ratio Ki [3] was 4.91.

Work on `COc1ccccc1/C=C(\C#N)C(=O)Nc1ccc(S(N)(=O)=O)cc1` yielded a Ki [1] of 69.5 nM, a Ratio Ki [2] of 0.1 and a Ratio Ki [3] of 1.02.

`N#C/C(=C\c1ccco1)C(=O)Nc1ccc(S(N)(=O)=O)cc1` showed a Ki [1] of 7.6 nM, a Ratio Ki [2] of 0.72 and a Ratio Ki [3] of 0.8.

In the case of `N#C/C(=C\c1ccc(O)c(O)c1)C(=O)Nc1ccc(S(N)(=O)=O)cc1`, the Growth inhibition IC50 (Saccharomyces cerevisiae) is reported as 890 nM, the Ki [1] is reported as 0.75 nM and the Ratio Ki [2] is reported as 5.6. The Ratio Ki [3] was 69.9.

Compound `COc1ccc(/C=C(\C#N)C(=O)Nc2ccc(S(N)(=O)=O)cc2)cc1OC` has a Ki [1] of 7.2 nM, a Ratio Ki [2] of 2.58 and a Ratio Ki [3] of 4.34.

For `N#C/C(=C\c1cccs1)C(=O)Nc1ccc(S(N)(=O)=O)cc1`, the Ki [1] was 3.3 nM, the Ratio Ki [2] was 0.81 and the Ratio Ki [3] was 1.6.

With `CC(=O)Nc1nnc(S(N)(=O)=O)s1` [ACETAZOLAMIDE] the Ki [1] was 82.6 nM, the Ratio Ki [2] was 0.14 and the Ratio Ki [3] was 3.02.

`CN(C)c1ccc(/C=C(\C#N)C(=O)Nc2ccc(S(N)(=O)=O)cc2)cc1` gave a Growth inhibition IC50 (Saccharomyces cerevisiae) of 6220 nM, a Ki [1] of 3 nM and a Ratio Ki [2] of 6.46. It also gave a Ratio Ki [3] of 15.8.

Work on `COc1ccc(/C=C(\C#N)C(=O)Nc2ccc(S(N)(=O)=O)cc2)cc1` yielded a Growth inhibition IC50 (Saccharomyces cerevisiae) of 1140 nM, a Ki [1] of 0.92 nM and a Ratio Ki [2] of 9.78. The Ratio Ki [3] was 43.

In the case of `N#C/C(=C\c1ccc2c(c1)OCO2)C(=O)Nc1ccc(S(N)(=O)=O)cc1`, the Ki [1] is reported as 7.5 nM, the Ratio Ki [2] is reported as 1.9 and the Ratio Ki [3] is reported as 3.29.

For `N#C/C(=N\Nc1ccccc1)C(=O)Nc1ccc(S(N)(=O)=O)cc1`, the Ki [1] was 6.5 nM, the Ratio Ki [2] was 1.3 and the Ratio Ki [3] was 5.23.

For `COc1cc(OC)c(/C=C(\C#N)C(=O)Nc2ccc(S(N)(=O)=O)cc2)c(OC)c1`, the Growth inhibition IC50 (Saccharomyces cerevisiae) was 730 nM, the Ki [1] was 0.68 nM and the Ratio Ki [2] was 9.85. The Ratio Ki [3] was 37.6.
